Measured values reported in paper PMC12721191, “Oxidative hypoxia drives TGF-β1–induced fibrosis under normoxia” (Redox Biology, 2025).
“Also recorded” adds a separate entry of the source.

What was measured:
[1] = tested on: BLM-induced pulmonary fibrosis; experiment: BLM-induced pulmonary fibrosis, Ashcroft scoring of lung sections; format: in vivo, ICR mice; conditions: BLM 30 mg/kg intratracheal; ACF-2 10 mg/kg i.p. every 2 days or NIDB 60 mg/kg/day in drinking water, 2 weeks; BLM-only 6.2
Description: Male ICR mice received BLM (30 mg/kg, intratracheal). […] Fixed left lung lobes were paraffin-embedded, sectioned (4 μm), and stained with H&E or MT. A blinded pathologist graded pulmonary fibrosis on the 1-8 Ashcroft scale; representative images illustrate typical lesions. Colon samples were processed by the swiss-roll method, stained with H&E, and scored for inflammation and erosion, which were combined into a composite histological score. All animal studies were approved by the Institutional Animal Care and Use Committee of Jeju National University (Approval ID: 2024-0058) and conducted in compliance with institutional guidelines. Male ICR mice (6 weeks old, average body weight 27 g) were purchased from […] (South Korea) and housed under controlled temperature (22 ± 2 °C) and humidity (0.0 ± 15.0 %) on a 12 hr light-dark cycle with free access to food and water. […] Lung tissue: Left lung lobes were fixed in 4% paraformaldehyde for 24 h, dehydrated, and embedded in paraffin. Sections of 4 μm thickness were prepared, deparaffinized with xylene, and rehydrated in a graded ethanol series. H&E staining was performed using hematoxylin and eosin solutions, respectively. The severity of fibrosis was graded according to the Ashcroft scale (1-8), as evaluated by a pathologist blindly. Representative H&E images were chosen to illustrate the most characteristic pathology. […]

A549 = experiment: MTT cytotoxicity assay; format: cell-based, human; conditions: two cell lines including A549, up to 7 μM, with or without TGF-β1
Description: Cells (8 × 10^3 per well, 96-well) were treated as indicated, incubated with 0.5 mg/mL MTT for 4 h, solubilized in DMSO, and read at 570 nm.
Cells were seeded at 8 × 10³ cells per well in 200 µL of medium in a 96-well plate. The next day, the medium was replaced with medium containing the test compound(s) at the desired concentration(s) and incubated for the specified duration. After the incubation, the medium was discarded and replaced with 0.5 mg/mL Thiazolyl Blue Tetrazolium Bromide in PBS. Following a 4 h incubation at 37 °C, the formazan crystals were dissolved in DMSO, and absorbance was measured at 570 nm using a SUNRISE™ microplate reader. The relative cell viability was calculated based on the optical density values.

## COc1ccc(-c2c(-c3ccc(O)c(OC)c3)oc3cc(OC)c(OC)cc3c2=O)cc1 [ACF-2]
[1]
  Average Ashcroft score: 3.3
A549
  cytotoxicity (MTT): does not induce cellular cytotoxicity; also recorded: did not exhibit cytotoxic effects
